Results taken from PMC5579575, “Study of Alzheimer’s Disease-Related Biophysical Kinetics with a Microslit-Embedded Cantilever Sensor in a Liquid Environment” (Sensors (Basel, Switzerland), 2017).

Legend:
[1] = biological target: Aβ peptides; conditions: conventional surface plasmon resonance (SPR), ref [27]; cited from earlier work
Procedure: Meanwhile, Equation (5) predicts the hyperbolic plot of fractional saturation ([AB]/[B]) vs. Aβ concentration. This curve follows isotherms for relatively obscure thermodynamic reasons. […] The acquired value is consistent with those of previous studies (1.2 nM) using conventional surface ...

[2] = test system: monoclonal 6E10 antibody (mAb); test: Quantitative detection of Aβ42 with mAb-immobilized slit cantilever (resonant frequency shift); assay type: binding; conditions: for frequency shift (average): in 10 mM PBS, 30 min, rinsed with PBS, mAb 10 μg/mL immobilized
Procedure: To detect the target molecules, a commercial monoclonal 6E10 antibody (mAb, 10 μg/mL, Covance, Princeton, NJ, USA) was immobilized on the cantilever surfaces by using a conventional coupling method. The mAb is known to include a specific binding ligand with the first 1–16 sequence of human Aβ peptides. Prior to antibody immobilization, the slit cantilever with a 50 nm thick Au surface was cleaned with piranha solution (a 4:1 ratio of H2SO4 to H2O2) and rinsed with deionized water (DI). In addition, 10 mM of 11-Mercaptoundecanoic acid (11-MUC, Sigma-Aldrich, St. Louis, MO, USA) diluted in ethanol was treated for 12 h on the Au surface of the sensor to establish a self-assembled monolayer. The MUC-modified slit cantilever was immersed in a mixture of 1-ethyl-3-(3-dimethylaminopropyl) carbodiimide (EDC, 80 mM, Sigma-Aldrich) and N-hydroxysuccinimide (NHS, 20 mM, Sigma-Aldrich) dissolved for 2 h in 10 mM of phosphate-buffered solution (PBS, pH = 7.4). Then, mAb, which was diluted as 10 µg/mL in 10 mM PBS, was immobilized on the functionalized surface of the slit cantilever for 2 h, followed by rinsing with PBS and DI.
To evaluate the sensing performance of the slit cantilever in a liquid environment, quantification of the synthetic Aβ42 peptide, which has an identical sequence of 42-residue amino acids associated with human AD, was investigated in a physiological-level concentration. Prior to conducting biomolecular interactions, a drift of resonant frequency was verified and stabilized until steady state (Figure S2). The resonance responses reached its steady state within 200 min and the frequency maintained for 60 min with fluctuations up to 4 Hz which can be regarded as a noise level. Detection of target molecules with the slit cantilever is based on the capturing by immobilized mAb on the cantilever beam. It occurs in the measurement of the frequency shift due to mass loading on the surface. Firstly, the specific antibody (mAb) of 10 μg/mL was chemically immobilized on the 60 μm × 280 μm dimension of the Au surface (50 nm thickness) of the slit cantilever. The Aβ42 peptide was diluted with a ten-fold difference from 10 pg/mL to 1 μg/mL in 10 mM PBS. The prepared Aβ42 solution was individually introduced into the slit cantilever for 30 min, followed by rinsing with PBS. The changes of resonant frequencies in PBS were measured before and after the recognition interactions between mAb and target analytes. The resonant frequency decreased according to the concentration increment of target analytes owing to mass adsorption of Aβ42 to the specific binding site of the immobilized mAb. The average values of the frequency shifts were measured as −15.5, −56.5, −119.5, −472.5, −774 and −799 Hz for the concentrations from 10 pg/mL to 1 μg/mL, respectively. As noted earlier, these responses were satisfied with at least three-sigma significance in terms of the signal-to-noise ratio of the sensors.

[3] = biological target: monoclonal 6E10 antibody (mAb); test: Binding affinity (KD) of Aβ42-mAb by Langmuir isotherm fit of slit cantilever responses; conditions: global fit of Langmuir isotherm (χ^2 = 0.010958), 1:1 binding; fractional saturation vs. Aβ concentration; 1 μg/mL assumed fully saturated; PBS; read-out: equilibrium dissociation constant (KD)
Procedure: To detect the target molecules, a commercial monoclonal 6E10 antibody (mAb, 10 μg/mL, Covance, Princeton, NJ, USA) was immobilized on the cantilever surfaces by using a conventional coupling method. The mAb is known to include a specific binding ligand with the first 1–16 sequence of human Aβ peptides. Prior to antibody immobilization, the slit cantilever with a 50 nm thick Au surface was cleaned with piranha solution (a 4:1 ratio of H2SO4 to H2O2) and rinsed with deionized water (DI). In addition, 10 mM of 11-Mercaptoundecanoic acid (11-MUC, Sigma-Aldrich, St. Louis, MO, USA) diluted in ethanol was treated for 12 h on the Au surface of the sensor to establish a self-assembled monolayer. […]
To evaluate the sensing performance of the slit cantilever in a liquid environment, quantification of the synthetic Aβ42 peptide, which has an identical sequence of 42-residue amino acids associated with human AD, was investigated in a physiological-level concentration. […] The changes of resonant frequencies in PBS were measured before and after the recognition interactions between mAb and target analytes. […] The average values of the frequency shifts were measured as −15.5, −56.5, −119.5, −472.5, −774 and −799 Hz for the concentrations from 10 pg/mL to 1 μg/mL, respectively. […]

| Substance | Kd [1] | frequency shift (average) ([2]; 10 pg/mL Aβ42) | frequency shift (average) ([2]; 100 pg/mL Aβ42 (ten-fold dilution series 10 pg/mL to 1 μg/mL)) | frequency shift (average) ([2]; 1 ng/mL Aβ42 (ten-fold dilution series 10 pg/mL to 1 μg/mL)) | frequency shift (average) ([2]; 10 ng/mL Aβ42 (ten-fold dilution series 10 pg/mL to 1 μg/mL)) | frequency shift (average) ([2]; 100 ng/mL Aβ42 (ten-fold dilution series 10 pg/mL to 1 μg/mL)) | frequency shift (average) ([2]; 1 μg/mL Aβ42) | sensitivity ([2]; dynamic range 100 pg/mL to 100 ng/mL Aβ42, logarithmic concentration) | Kd [3] | resonant frequency response, negative control ([2]; PSA protein as control experiment, mAb-immobilized cantilever) |
| --- | --- | --- | --- | --- | --- | --- | --- | --- | --- | --- |
| Aβ42: synthetic Aβ42 peptide, which has an identical sequence of 42-residue amino acids associated with human AD (Sigma-Aldrich) | 1.2 nM | −15.5 Hz | −56.5 Hz | −119.5 Hz | −472.5 Hz | −774 Hz | −799 Hz | 330 Hz/decade | 1.75 nM | – |
| PSA: prostate cancer antigen (PSA) protein introduced as a control experiment | – | – | – | – | – | – | – | – | – | no obvious responses were observed |
